The record followed here is patent US5869490A, “Azaheterocyclymethyl derivatives of 2,3,8,9-tetrahydro-7h-1,4-dioxino (2,3-e) indol-8-one” (American Home Products Corporation, priority 1997, dated 1999).

T1 sequence (P61169 whole entry): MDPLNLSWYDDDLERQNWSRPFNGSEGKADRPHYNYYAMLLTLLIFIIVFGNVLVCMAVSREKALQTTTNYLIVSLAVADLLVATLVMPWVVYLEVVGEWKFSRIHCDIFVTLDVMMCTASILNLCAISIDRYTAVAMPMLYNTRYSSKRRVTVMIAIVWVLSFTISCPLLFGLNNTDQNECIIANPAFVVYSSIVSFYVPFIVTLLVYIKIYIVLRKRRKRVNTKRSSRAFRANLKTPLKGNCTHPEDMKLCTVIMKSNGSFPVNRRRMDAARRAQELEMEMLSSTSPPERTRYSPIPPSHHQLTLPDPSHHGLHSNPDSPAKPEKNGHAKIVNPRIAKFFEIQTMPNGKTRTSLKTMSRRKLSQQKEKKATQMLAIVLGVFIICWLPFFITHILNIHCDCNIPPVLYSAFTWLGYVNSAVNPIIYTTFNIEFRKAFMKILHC

The first assay has as its target T1, dopamine D2 receptor (Rattus norvegicus, UniProt P61169).
T1 construct: homogenized rat striatal brain tissue; from tissue; host or cells: rat striatum homogenate
Nature of the assay: Affinity for the dopamine D2 receptor (3H-quinpirole, rat striatal homogenate).
Settings: not given
The format is binding. How it is done:
Affinity for the dopamine D2 receptor was established by a modification of the standard experimental test procedure of Seemen and Schaus, European Journal of Pharmacology 203: 105-109, 1991, wherein homogenized rat striatal brain tissue is incubated with ^3 H-quinpirole and various concentrations of test compound, filtered and washed and counted in a Betaplate scintillation counter.
The IC50 is the concentration needed to halve the response being measured. For `O=C1Cc2c(ccc3c2O[C@@H](CN2CCC4(CC2)C(=O)NCN4c2ccccc2)CO3)N1` [Example 3, 2-(4-Oxo-1-phenyl-1,3,8-triaza-spiro[4,5]dec-8-ylmethyl)-2,3,8,9-tetrahydro-7H-1,4-dioxino-[2,3-e]indol-8-one], the midpoint of inhibition, the IC50, lay at 3.2 nM.
In turn, `O=C1Cc2c(ccc3c2O[C@@H](CN2CCC(n4c(=O)[nH]c5ccccc54)CC2)CO3)N1` [Example 4, 2-[4-(2-Oxo-2,3-dihydro-benzimidazol-1-yl)-piperidin-1-ylmethyl]-2,3,8,9-tetrahydro-7H-1,4-dioxino[2,3-e]indol-8-one] gave an IC50 of 4.08 nM.
With `O=C1Cc2c(ccc3c2O[C@@H](CN2CC=C(c4ccccc4)CC2)CO3)N1` [Example 5, 2-(4-Phenyl-3,6-dihydro-2H-pyridin-1-ylmethyl)-2,3,8,9-tetrahydro-7H-1,4-dioxino[2,3-e]indol-8-one], the IC50 came out at 1.2 nM.

The assay is the same for the next values; noted with them: rat striatal brain tissue homogenate, 3H-quinpirole; read-out: D2 Receptor Affinity (IC50 (nM)).
On to `O=C1Cc2c(ccc3c2O[C@@H](CN2CCc4ccccc4C2)CO3)N1` [Example 1, 2-(3,4-Dihydro-1H-isoguinolin-2-ylmethyl)-2,3,8,9-tetrahydro-7H-1,4-dioxino[2,3-e]indol-8-one], for which the IC50 was 0.35 nM.
Take `O=C1Cc2c(ccc3c2O[C@@H](CN2CCC(C(=O)c4ccc(F)cc4)CC2)CO3)N1` [Example 2, 2-(4-(4-Fluoro-benzoyl)-piperidin-1-ylmethyl]-2,3,8,9-tetrahydro-7H-1,4-dioxino[2,3-e]indol-8-one]: the IC50 is 0.73 nM.
On to `O=C1Cc2c(c(F)cc3c2O[C@@H](CN2CCc4ccccc4C2)CO3)N1` [Example 7, 2-(3,4-Dihydro-1H-isoguinolin-2-ylmethyl)-6-fluoro-2,3,8,9-tetrahydro-7H-1,4-dioxino[2,3-e]indol-8-one], for which the IC50 is 0.23 nM.
With `O=C1Cc2c(ccc3c2O[C@@H](CN2CCN(c4cccc5[nH]ccc45)CC2)CO3)N1` [Example 6, 2-[4-(1H-Indol-4-yl)-piperazin-1-ylmethyl]-2,3,8,9-tetrahydro-7H-1.4-dioxino[2.3-e]indol-8-one], the half-maximal inhibitory concentration (IC50) amounted to 4.06 nM.
